# Experimental data from patent US4073935A, “Substituted propanol-(2)-derivatives and their nicotinic acid esters, and process for their preparation, and the use thereof as hypolipemic drugs” (Klinge Pharma GmbH & Co., priority 1974, dated 1978).
# Where two headings read alike, the source gives them in different places.
# How the values were obtained:
# serum lipids = experiment: Lipid-lowering action in normolipemic rats; format: in vivo; conditions: Rattus norvegicus, 72 h, 4 × 100 mg/kg oral over 3 days, male Wistar rats, vs controls, X ± Sx
# Procedure: Lipid-lowering action was tested on groups of 10 male Wistar rats (Ivanovas-Kisslegg), weight 200-220 g, normolipemic, or ordinary ration ("ssniff" complete feed).
# The test compounds were taken up in an aqueous solution of 0.25% agar and 0.85% NaCl and administered orally. After administration of 4 × 100 mg/kg over a period of 3 days, the animals were bled by cardiac puncture after privation of […] for 4 hours.^1
# ^1 H. Enomoto and R. Zschocke, 3rd Int. Symp. Atheroscler, Berlin 1973, Abstr. 238.
# Serum lipids were determined with a Technicon autoanalyzer. Total cholesterol (TC) was tested by the Liebermann-Burchard reaction. Quantitative analysis for triglycerides (TG) was performed by Eggstein and Kreutz's enzyme method (Klin. Wschr. 44, 262, 1966), modified for autoanalyzer.
# Lipid lowering effect is expressed as percent lowering of total cholesterol and triglycerides compared to controls.
# [1] = Oral tolerance (acute toxicity, LD50); conditions: mouse, in vivo, mice, 8th day after treatment, Litchfield-Wilcoxon
# Procedure: After oral administration of the test compounds to mice of strain NMR-I, weight 15-20 g, the acute toxicity was determined. LD50 values were calculated following Litchfield-Wilcoxon (J. Pharmak. Exp. Therap. 96, 99, 1949) and pertain to the 8th day after treatment.
# [2] = read-out: % Lowering TC (total cholesterol)
# [3] = read-out: % Lowering TG (triglycerides)
Compound,inhibition in vivo at 100 mg/kg (serum lipids; [2]),inhibition in vivo at 100 mg/kg (serum lipids; [3]),LD50 at 192 h [1]
COC(OC)c1ccc(OCC(O)CSc2ccc(Cl)cc2)cc1 (centres unmarked) [Compound 116],43.2 ± 9.8%,74 ± 9.8%,–
"CCOC(=O)C(C)(C)Oc1ccc(Cl)cc1 [clofibrate, 2-(4'-chlorophenoxy)-2-methylpropionic acid ethyl ester, reference compound]",37.4 ± 13.6%,50.4 ± 20%,1900 mg/kg
